The numbers were not newly measured in US4235881A, “Method for producing high potency factor VIII” (priority 1978, dated 1980), which cites them from elsewhere.

The test system of this series is Factor VIII. The settings on record: hemophiliacs having diminished ability to synthesize Factor VIII.

In the case of “1-Deamino-8-D-Arginine Vasopressin [dDAVP]”, the “ability to synthesize Factor VIII” value is recorded as “increased to normal levels”.
